Reference: ChEMBL document CHEMBL4396934, “Novel α,β-unsaturated hydroxamic acid derivatives overcome cisplatin resistance” (Bioorg Med Chem, 2019)
Activity calls are given as the source filed them. The calls are words filed in the database; no cut-off is given here.

How the values were obtained:
A2780 = assay: Antiproliferative activity against human A2780 cells after 72 hrs by microplate reader based MTT assay; format: functional, cell-based; settings: A2780, 72 h
CAL-27 [1] = assay: Antiproliferative activity against human CAL27 cells after 72 hrs by microplate reader based MTT assay; format: functional, cell-based; settings: CAL-27, 72 h
Histone deacetylase [2] = assay: Inhibition of HDAC in human CAL27 cells using Boc-Lys(epsilon-Ac)-AMC as substrate preincubated for 18 hrs followed by substrate addition and further incubation for 3 hrs by microplate reader based fluorescence assay; format: cell-based
Histone deacetylase [3] = assay: Inhibition of HDAC in human A2780 cells using Boc-Lys(epsilon-Ac)-AMC as substrate preincubated for 18 hrs followed by substrate addition and further incubation for 3 hrs by microplate reader based fluorescence assay; format: cell-based
CAL-27 [4] = assay: Induction of apoptosis in human CAL27 cells assessed as caspase-3/7 activity at 0.5 uM after 48 hrs by CellEvent caspase 3/7 green detection reagent/Hoechst 33342 staining based arrayscan analysis; format: functional, cell-based
Histone deacetylase 2 = Histone deacetylase 2 (Homo sapiens, UniProt Q92769); assay: biochemical; format: cell-based
Homo sapiens [5] = organism: Homo sapiens; assay: Induction of apoptosis in human Cal27CisR cells assessed as accumulation at sub-G1 phase at 1 uM after 48 hrs by propidium iodide staining based flow cytometry; format: functional, cell-based
CAL-27 [6] = assay: (§1) Potentiation of cisplatin-induced apoptosis in human CAL27 cells assessed as increase in caspase-3/7 activation at 0.5 uM preincubated for 48 hrs followed by cisplatin addition and further incubation for 24 hrs by CellEvent caspase 3/7 green detection reagent/Hoechst 33342 staining based arrayscan analysis; format: functional, cell-based
CAL-27 [7] = assay: Potentiation of cisplatin-induced apoptosis in human CAL27 cells assessed as accumulation at sub-G1 phase at 0.5 uM preincubated for 48 hrs followed by cisplatin addition and further incubation for 24 hrs by propidium iodide staining based flow cytometry (reference value: 11.5 +/- 0.89%); format: functional
Histone deacetylase 4 = Histone deacetylase 4 (Homo sapiens, UniProt P56524); assay: (§2) Inhibition of C-terminal His-tagged/N-terminal GST-tagged recombinant human HDAC4 (627 to 1084 residues) expressed in Baculovirus infected insect cells using Boc-Lys(TFa)-AMC as substrate preincubated for 5 mins followed by substrate addition and further incubation for 90 mins measured after 15 mins by microplate reader based fluorescence assay
[8] = Potentiation of cisplatin-induced apoptosis in human Cal27CisR cells assessed as increase in accumulation at sub-G1 phase at 1 uM preincubated for 48 hrs followed by cisplatin addition and further incubation for 24 hrs by propidium iodide staining based flow cytometry relative to cisplatin alone; format: functional
[9] = Potentiation of cisplatin-induced cytotoxicity in human Cal27CisR cells assessed as fold reduction in cisplatin IC50 at 1 uM preincubated for 48 hrs followed by cisplatin addition and further incubation for 72 hrs by MTT assay relative to cisplatin alone; format: functional
Homo sapiens [10] = organism: Homo sapiens; assay: Induction of apoptosis in human Cal27CisR cells assessed as increase in caspase-3/7 activation at 1 uM after 48 hrs by CellEvent caspase 3/7 green detection reagent/Hoechst 33342 staining based arrayscan analysis; format: functional, cell-based
Homo sapiens [11] = organism: Homo sapiens; assay: (§3) Potentiation of cisplatin-induced apoptosis in human Cal27CisR cells assessed as caspase-3/7 activity at 1 uM preincubated for 48 hrs followed by cisplatin addition and further incubation for 24 hrs treated with 20 uM pan capsase inhibitor QVD for 30 mins prior to compound addition by CellEvent caspase 3/7 green detection reagent/Hoechst 33342 staining based arrayscan analysis; format: functional, cell-based
CAL-27 [12] = assay: as §3, with “CAL27” for “Cal27CisR”, “0.5” for “1”; format: functional, cell-based
CAL-27 [13] = assay: Potentiation of cisplatin-induced cytotoxicity in human CAL27 cells assessed as fold reduction in cisplatin IC50 at 0.5 uM preincubated for 48 hrs followed by cisplatin addition and further incubation for 72 hrs by MTT assay relative to cisplatin alone; format: functional
CAL-27 [14] = assay: Induction of apoptosis in human CAL27 cells assessed as accumulation at sub-G1 phase at 0.5 uM after 48 hrs by propidium iodide staining based flow cytometry; format: functional, cell-based
[15] = biological target: T1, Protein deacetylase HDAC6 (Homo sapiens, UniProt Q9UBN7); assay: as §2, with “N-terminal” for “C-terminal His-tagged/N-terminal”, “HDAC6 (1” for “HDAC4 (627”, “1215” for “1084”, “Boc-Lys(Ac)-AMC” for “Boc-Lys(TFa)-AMC”
T1 sequence (Q9UBN7 whole entry): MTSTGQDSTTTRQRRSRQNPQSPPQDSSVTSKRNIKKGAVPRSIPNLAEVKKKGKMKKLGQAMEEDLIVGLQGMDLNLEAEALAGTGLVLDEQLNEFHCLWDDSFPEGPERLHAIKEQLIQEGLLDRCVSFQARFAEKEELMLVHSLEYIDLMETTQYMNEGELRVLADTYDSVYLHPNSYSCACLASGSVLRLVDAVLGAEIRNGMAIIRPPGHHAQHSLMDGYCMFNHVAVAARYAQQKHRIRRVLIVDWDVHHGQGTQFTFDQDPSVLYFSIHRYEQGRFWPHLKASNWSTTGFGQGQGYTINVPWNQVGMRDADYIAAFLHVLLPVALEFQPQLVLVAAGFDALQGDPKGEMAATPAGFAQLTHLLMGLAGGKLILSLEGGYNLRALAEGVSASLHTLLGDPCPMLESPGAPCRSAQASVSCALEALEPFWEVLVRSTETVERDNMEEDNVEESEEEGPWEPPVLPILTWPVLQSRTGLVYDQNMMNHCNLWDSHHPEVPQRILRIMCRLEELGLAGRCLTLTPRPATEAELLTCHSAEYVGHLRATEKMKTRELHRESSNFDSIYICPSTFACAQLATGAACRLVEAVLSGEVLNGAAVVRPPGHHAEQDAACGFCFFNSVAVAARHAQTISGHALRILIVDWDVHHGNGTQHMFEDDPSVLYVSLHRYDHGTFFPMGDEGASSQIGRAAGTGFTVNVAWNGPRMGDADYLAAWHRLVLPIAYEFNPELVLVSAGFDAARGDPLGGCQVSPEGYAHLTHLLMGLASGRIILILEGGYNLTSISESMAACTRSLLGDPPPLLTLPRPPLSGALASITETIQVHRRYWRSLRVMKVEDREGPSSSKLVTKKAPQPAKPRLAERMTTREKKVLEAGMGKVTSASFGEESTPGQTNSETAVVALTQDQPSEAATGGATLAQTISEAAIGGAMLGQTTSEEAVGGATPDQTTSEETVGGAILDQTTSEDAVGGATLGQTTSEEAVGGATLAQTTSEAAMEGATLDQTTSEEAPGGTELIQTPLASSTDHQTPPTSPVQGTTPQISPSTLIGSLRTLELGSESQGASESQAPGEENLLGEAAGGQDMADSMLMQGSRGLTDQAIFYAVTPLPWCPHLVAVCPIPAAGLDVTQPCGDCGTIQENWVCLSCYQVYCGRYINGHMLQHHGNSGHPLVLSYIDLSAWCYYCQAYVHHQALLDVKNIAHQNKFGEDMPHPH

CAL-27 [16] = assay: Potentiation of cisplatin-induced apoptosis in human CAL27 cells assessed as increase in accumulation at sub-G1 phase at 0.5 uM preincubated for 48 hrs followed by cisplatin addition and further incubation for 24 hrs by propidium iodide staining based flow cytometry relative to cisplatin alone; format: functional
[17] = Potentiation of cisplatin-induced apoptosis in human Cal27CisR cells assessed as accumulation at sub-G1 phase at 1 uM preincubated for 48 hrs followed by cisplatin addition and further incubation for 24 hrs by propidium iodide staining based flow cytometry (reference value: 8.3 +/- 1.06%); format: functional
Homo sapiens [18] = organism: Homo sapiens; assay: as §1, with “Cal27CisR” for “CAL27”, “1” for “0.5”; format: functional, cell-based
Histone deacetylase 8 = biological target: T2, Histone deacetylase 8 (Homo sapiens, UniProt Q9BY41); assay: as §2, with “His-fusion tagged/N-terminal Strep-2 tagged” for “His-tagged/N-terminal GST-tagged”, “HDAC8 (1” for “HDAC4 (627”, “377” for “1084”, “in” for “in Baculovirus infected”
T2 sequence (Q9BY41 whole entry): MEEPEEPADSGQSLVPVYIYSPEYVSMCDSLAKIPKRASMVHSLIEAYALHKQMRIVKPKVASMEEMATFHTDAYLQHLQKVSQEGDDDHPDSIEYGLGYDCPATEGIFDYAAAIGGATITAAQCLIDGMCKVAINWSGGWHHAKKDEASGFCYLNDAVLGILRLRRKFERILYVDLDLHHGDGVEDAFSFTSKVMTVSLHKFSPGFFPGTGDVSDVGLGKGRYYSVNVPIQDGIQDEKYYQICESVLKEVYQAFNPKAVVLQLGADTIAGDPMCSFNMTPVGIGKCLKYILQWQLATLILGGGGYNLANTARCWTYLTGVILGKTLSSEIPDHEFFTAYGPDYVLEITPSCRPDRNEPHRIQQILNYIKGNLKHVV

Sequence of Histone deacetylase 4 (P56524 whole entry, the tested form may be a part): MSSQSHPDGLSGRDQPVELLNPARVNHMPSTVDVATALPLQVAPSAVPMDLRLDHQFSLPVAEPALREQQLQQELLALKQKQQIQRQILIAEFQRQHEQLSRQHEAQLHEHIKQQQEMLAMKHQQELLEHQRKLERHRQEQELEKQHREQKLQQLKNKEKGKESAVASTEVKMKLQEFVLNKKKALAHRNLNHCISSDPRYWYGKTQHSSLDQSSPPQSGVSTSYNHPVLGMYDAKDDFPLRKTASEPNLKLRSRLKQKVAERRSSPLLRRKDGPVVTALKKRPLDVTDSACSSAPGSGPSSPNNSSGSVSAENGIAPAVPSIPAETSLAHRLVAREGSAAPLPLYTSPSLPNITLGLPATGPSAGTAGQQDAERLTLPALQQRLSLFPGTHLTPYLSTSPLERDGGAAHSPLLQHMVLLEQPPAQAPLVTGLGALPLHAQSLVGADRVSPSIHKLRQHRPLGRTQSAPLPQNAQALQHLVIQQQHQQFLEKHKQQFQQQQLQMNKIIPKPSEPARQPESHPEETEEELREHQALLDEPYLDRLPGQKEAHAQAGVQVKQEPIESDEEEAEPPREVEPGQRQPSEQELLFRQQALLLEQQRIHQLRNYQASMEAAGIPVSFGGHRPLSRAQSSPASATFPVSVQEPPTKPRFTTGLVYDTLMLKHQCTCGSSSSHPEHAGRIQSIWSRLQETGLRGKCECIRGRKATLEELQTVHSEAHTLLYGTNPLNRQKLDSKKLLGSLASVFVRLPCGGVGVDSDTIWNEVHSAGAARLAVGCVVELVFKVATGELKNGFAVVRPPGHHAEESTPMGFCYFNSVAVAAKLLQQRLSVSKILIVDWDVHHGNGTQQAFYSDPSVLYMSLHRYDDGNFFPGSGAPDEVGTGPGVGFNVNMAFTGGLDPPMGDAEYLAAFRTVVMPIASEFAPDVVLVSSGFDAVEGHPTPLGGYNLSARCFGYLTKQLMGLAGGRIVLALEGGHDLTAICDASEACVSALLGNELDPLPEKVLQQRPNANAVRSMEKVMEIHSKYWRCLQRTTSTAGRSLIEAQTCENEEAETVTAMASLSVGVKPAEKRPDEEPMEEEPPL
Sequence of Histone deacetylase 2 (Q92769 whole entry): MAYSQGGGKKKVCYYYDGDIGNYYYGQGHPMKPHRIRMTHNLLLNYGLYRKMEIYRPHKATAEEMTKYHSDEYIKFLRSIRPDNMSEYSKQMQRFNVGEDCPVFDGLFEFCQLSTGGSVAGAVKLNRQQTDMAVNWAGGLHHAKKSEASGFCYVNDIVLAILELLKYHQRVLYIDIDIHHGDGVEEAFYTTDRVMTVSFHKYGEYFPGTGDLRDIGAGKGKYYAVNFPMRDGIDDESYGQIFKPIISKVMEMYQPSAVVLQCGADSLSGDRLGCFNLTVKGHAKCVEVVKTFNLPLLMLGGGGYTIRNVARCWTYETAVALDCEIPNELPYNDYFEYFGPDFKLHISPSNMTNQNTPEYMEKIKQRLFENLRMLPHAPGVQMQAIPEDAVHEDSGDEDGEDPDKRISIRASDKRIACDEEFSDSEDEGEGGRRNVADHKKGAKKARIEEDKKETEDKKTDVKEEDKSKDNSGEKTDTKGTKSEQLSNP

Row | Compound | IC50 (A2780) [µM] | IC50 (CAL-27 [1]) [µM] | IC50 (Histone deacetylase [2]) [µM] | IC50 (Histone deacetylase [3]) [µM] | other results
1 | Cc1[nH]c2ccccc2c1CCNCc1ccc(/C=C/C(=O)NO)cc1 [PANOBINOSTAT] | 0.0548 | 0.0109 | – | – | –
2 | Cc1cc(C)cc(NC(=O)NOCc2ccc(/C=C/C(=O)NO)cc2)c1 | 2.01 | 2.27 | 1.12 | 1.54 | –
3 | O=C(/C=C/c1ccc(CONC(=O)c2ccc3ccccc3n2)cc1)NO | 0.79 | 0.8 | 0.27 | 1.54 | Activity (CAL-27 [4]): inactive; Ki (Histone deacetylase 2): 0.07 µM; Activity (Homo sapiens [5]): inactive; Activity (CAL-27 [6]): Active; Activity (CAL-27 [7]): 34.5%; Ki (Histone deacetylase 4): 9.54 µM; fold change (FC) [8]: 4.7; Ratio IC50 [9]: 6.86; Activity (Homo sapiens [10]): Active; Activity (Homo sapiens [11]): inactive; Activity (CAL-27 [12]): inactive; Ratio IC50 (CAL-27 [13]): 5.69; Activity (CAL-27 [14]): inactive; Ki [15]: 0.1 µM; fold change (FC) (CAL-27 [16]): 3; Activity [17]: 38.9%; Activity (Homo sapiens [18]): Active; Ki (Histone deacetylase 8): 4.7 µM
4 | CCCCOc1ccc(C(=O)NOCc2ccc(/C=C/C(=O)NO)cc2)cc1 | 1.7 | 4.55 | 3 | 7.6 | –
5 | O=C(/C=C/c1ccc(CONC(=O)Nc2ccccc2)cc1)NO | 112 | 62 | 144 | 190 | –
6 | Cc1[nH]c2ccccc2c1CC(=O)NOCc1ccc(/C=C/C(=O)NO)cc1 | 14 | 5.25 | 2.65 | 1.12 | –
7 | O=C(/C=C/c1ccc(CONC(=O)c2nccc3ccccc23)cc1)NO | 3.15 | 4.21 | 4.48 | 1.98 | –
8 | COc1cc(C(=O)NOCc2ccc(/C=C/C(=O)NO)cc2)cc(OC)c1OC | 38.6 | 8.94 | 3.14 | 6.85 | –
9 | O=C(/C=C/c1ccc(CONC(=O)c2csc(-c3ccccc3)n2)cc1)NO | 2.02 | 16.3 | 11.6 | 19.2 | –
10 | Cc1cc(C)c(NC(=O)NOCc2ccc(/C=C/C(=O)NO)cc2)c(C)c1 | 3.39 | 3.49 | 4.21 | 2.29 | –
11 | CC(C(=O)NOCc1ccc(/C=C/C(=O)NO)cc1)(c1ccccc1)c1ccccc1 | 4.55 | 5.71 | 4.81 | 3.34 | –
12 | O=C(/C=C/c1ccc(CONC(=O)c2ccccc2)cc1)NO | 2.08 | 2.99 | 1.16 | 0.94 | –
13 | O=C(/C=C/c1ccc(CONC(=O)Nc2cccc3ccccc23)cc1)NO | 38.9 | 34.1 | 40.3 | 43.2 | –
14 | Cc1cc(C)cc(C(=O)NOCc2ccc(/C=C/C(=O)NO)cc2)c1 | 2.33 | 2.24 | 1.09 | 0.9 | –
15 | CCNC(=O)NOCc1ccc(/C=C/C(=O)NO)cc1 | 35.4 | 14 | 14.2 | 6.85 | –
16 | O=C(/C=C/c1ccc(CONC(=O)Nc2ccccc2-c2ccccc2)cc1)NO | 3.57 | 2.62 | 5.65 | 4.03 | –
17 | O=C(/C=C/c1ccc(CONC(=O)c2ccc3ccccc3c2)cc1)NO | 3.11 | 3.65 | 2.83 | 1.92 | –
18 | COc1ccc(NC(=O)NOCc2ccc(/C=C/C(=O)NO)cc2)cc1 | 1.15 | 1.7 | 0.49 | 0.57 | Activity (CAL-27 [4]): inactive; Ki (Histone deacetylase 2): 0.15 µM; Activity (Homo sapiens [5]): inactive; Activity (CAL-27 [6]): Active; Activity (CAL-27 [7]): 36.7%; Ki (Histone deacetylase 4): 25.2 µM; fold change (FC) [8]: 6; Ratio IC50 [9]: 4.76; Activity (Homo sapiens [10]): Active; Activity (Homo sapiens [11]): inactive; Activity (CAL-27 [12]): inactive; Ratio IC50 (CAL-27 [13]): 2.95; Activity (CAL-27 [14]): inactive; Ki [15]: 0.12 µM; fold change (FC) (CAL-27 [16]): 3; Activity [17]: 52.2%; Activity (Homo sapiens [18]): Active; Ki (Histone deacetylase 8): 4.21 µM
